Marks after values point to notes of the source that are not given here.
Assays:
Tfam = Tfam gene expression in aorta of DKO mice (qPCR); conditions: 12 weeks treatment, relative RNA expression, mean ± SD
Description: (§1) Total RNA from monocytes, macrophages and vascular tissues was extracted with TRIzol reagent (Invitrogen) and purified on (mi)RNeasy Mini Kit columns (Qiagen). […] First-strand cDNA was generated from total RNA with the SuperScript VILO cDNA synthesis kit (Invitrogen). qPCR analysis was performed on a 7500 Fast Real-Time PCR system using Fast SYBRGreen master mix, according to the supplier protocols (Applied Biosystems). […] For each RNA and microRNA sample, the expression levels of the RNAs as described herein were compared and normalized to reference housekeeping RNAs or microRNAs. […] We compared them with non-treated DKO at 24 weeks. […] Food and water were available ad libitum. […] All mice were sacrificed by Nembutal overdose at the age of 24 weeks (72, 73).

[1] = tested on: DKO (LDL-R−/−×ob/ob) mice; conditions: mean ± SD
Description: Breeding and genotyping of LDL-receptor deficient, leptin-deficient ob/ob, and DKO (LDL-R^−/−×ob/ob) mice, on the C57BL/6J background, were performed as previously described (72, 73).
To convert from mg/dL to mM, we divided glucose by 18 (=molecular weight), triglycerides by 89 and total cholesterol by 39. […] To determine glucose tolerance, glucose was measured in samples obtained by tail bleeding before and 15, 30, 60, 120 and 240 minutes after intraperitoneal administration of glucose (20% glucose solution; 2 g/kg). Plasma adiponectin […] were measured with specific mouse ELISA (R&D Systems).

Cox1 = Cox1 gene expression in aorta of DKO mice (qPCR); conditions: 12 weeks treatment, relative RNA expression, mean ± SD
Description: as §1

Cox4i1 = Cox4i1 gene expression in aorta of DKO mice (qPCR); conditions: 12 weeks treatment, relative RNA expression, mean ± SD
Description: as §1

[2] = DKO mice at 24 weeks, 12 weeks treatment in diet

SMILES | Tfam gene expression in aorta (Tfam) | Weight ([1]; DKO mice at 24 weeks, 12 weeks treatment in diet (fenofibrate 50, rosiglitazone 10 mg/kg/day)) | Insulin ([1]; DKO mice at 24 weeks, 12 weeks treatment in diet, fasting plasma) | TG (triglyceride) [1, 2] | Total C (cholesterol) [1, 2] | Glucose ([1]; DKO mice at 24 weeks, 12 weeks treatment in diet, overnight fast) | ADN (adiponectin) ([1]; DKO mice at 24 weeks, 12 weeks treatment in diet, plasma) | HOMA-IR ([1]; DKO mice, 12 weeks treatment, fasting insulin × fasting glucose / 22.5) | Cox1 gene expression in aorta (Cox1) | Cox4i1 gene expression in aorta (Cox4i1) | AUC of IPGTT ([1]; DKO mice, 12 weeks treatment, intraperitoneal glucose tolerance test, glucose 2 g/kg)
CN(CCOc1ccc(CC2SC(=O)NC2=O)cc1)c1ccccn1 (centres unmarked) [Rosiglitazone, rosiglitazone] | 1.57 ± 0.50***^/$/££ | 55 ± 3.6*^/$ g | 69 ± 42 ^ mU/L | 192 ± 96 ^ mg/dl | 700 ± 139*^/$$ mg/dl | 88 ± 18*^/$/£ mg/dl | 16 ± 2.3***^/£££ μg/ml | 16 ± 11 ^ | 1.16 ± 0.40***^/$/£££ | 2.20 ± 0.64***^/$$/££ | 
CC(C)OC(=O)C(C)(C)Oc1ccc(C(=O)c2ccc(Cl)cc2)cc1 [Fenofibrate] |  |  |  |  |  |  |  |  |  |  | 75 ± 15 ×10^3

Source: US10704097B2, “Oxidative stress and cardiovascular disease events” (KATHOLIEKE UNIVERSITEIT LEUVEN, priority 2014, dated 2020)
